# Activity calls are given as the source filed them. No cut-off for these calls is given here.
# Experiments:
# MCF7 [1] = assay: Cytotoxicity against human MCF7 cells at 100 ug/ml after 48 hrs by MTT assay; assay type: functional, cell-based
# MCF7 [2] = assay: Cytotoxicity against human MCF7 cells at 5 ug/ml after 48 hrs by MTT assay; assay type: functional, cell-based
Compound,Activity (MCF7 [1]),Activity (MCF7 [2])
CC1=CC(=O)[C@H]2CC[C@H](C(C)C)[C@@]2(C)CC1 (relative stereo),inactive,
CC(C)[C@H]1CC[C@@H]2C=CC(=O)CC[C@]12C (relative stereo),,Active
CC(C)[C@H]1CC[C@@H]2C(=O)C=C(CO)CC[C@@]21C (relative stereo),inactive,

# Reference: ChEMBL document CHEMBL2062358, “Hortonones A to C, hydroazulenones from the genus Hortonia” (J Nat Prod, 2012)
